Laboratory results as given in patent US12564555B2, “Continuous processes for manufacturing impregnated porous carriers and for manufacturing pharmaceuticals containing impregnated porous carriers” (Rutgers, The State University of New Jersey, priority 2019, dated 2026).

Assay: Dissolution test, rotating paddle method, DI water (Example 2)
Type: physicochemical
Settings: 900 ml DI water, 50 rpm, 37° C., FIG. 4
Experimental: Dissolution Behavior: As part of this study, dissolution tests were performed on both pure IBU and impregnated IBU to check the effect of the impregnation process on the dissolution rate and extent of IBU. Dissolution was carried out in 900 ml of DI water at 50 rpm and 37° C. using the rotating paddle method. Samples were withdrawn at predetermined time intervals (every 3 minutes) for 60 min using a peristaltic pump attached to the dissolution device. The amount of released IBU was quantified spectrophotometrically.

IBU released within 5 minutes: less than 10%
Compound: CC(C)Cc1ccc(C(C)C(=O)O)cc1 (stereo not shown) [pure crystal IBU, Ibuprofen]
